Data on 1 compound can be found in ChEMBL document CHEMBL3813627, “Preventive effect of a novel diosgenin derivative on arterial and venous thrombosis in vivo” (Bioorg Med Chem Lett, 2016).

Data set [1] concerns Mus musculus. Put plainly: Toxicity in Balb/c mouse assessed as white blood cell count at 66.2 mg/kg, ig bid for 7 days (reference value: 7.7 +/- 0.65 10^9/L). The class given is organism-based. The following applies: in vivo, po, 168 h.
The test system of data set [2] is Mus musculus. Put plainly: Toxicity in Balb/c mouse assessed as hemoglobin count at 66.2 mg/kg, ig bid for 7 days (reference value: 143 +/- 11.9 g/L). The class given is organism-based. The following applies: in vivo, po, 168 h.
In data set [3] the test system is Mus musculus. As to the kind of experiment: Toxicity in Balb/c mouse assessed as hematocrit at 66.2 mg/kg, ig bid for 7 days (reference value: 40.5 +/- 3.5 %). In kind it is organism-based. The following applies: in vivo, po, 168 h.
The species named for data set [4] is Rattus norvegicus. Put plainly: Gastric toxicity in Sprague-Dawley rat assessed as gastric mucosal damage score treated for 49 days by hematoxylin and eosin staining based microscopic analysis. The class given is organism-based, Gastric mucosa. The following applies: in vivo, 1176 h.
The species entered for data set [5] is Rattus norvegicus. Put plainly: Gastric toxicity in Sprague-Dawley rat assessed as angiogenesis treated for 49 days by hematoxylin and eosin staining based microscopic analysis. The class given is organism-based. The following applies: in vivo, 1176 h.
Data set [6] is filed under the species Rattus norvegicus. As to the kind of experiment: Gastric toxicity in Sprague-Dawley rat assessed as fibrotic changes treated for 49 days by hematoxylin and eosin staining based microscopic analysis. In kind it is organism-based. The following applies: in vivo, 1176 h.
Data set [7] has as its system Rattus norvegicus. As to the kind of experiment: Antiplatelet activity in platelet-rich plasma isolated from Sprague-Dawley rat assessed as ADP-induced platelet aggregation at 46 mg/kg, ig bid for 7 days measured for 5 mins by light transmission aggregometry (reference value: 57.57 +/- 2.43 %). The class given is functional.
Data set [8] concerns Rattus norvegicus. As to the kind of experiment: Anticoagulant activity in platelet-rich plasma isolated from Sprague-Dawley rat assessed as activated partial thromboplastin time at 46 mg/kg, ig bid for 7 days (reference value: 17.6 +/- 0.92 secs). The class given is functional.
In data set [9] the test system is Rattus norvegicus. Put plainly: Anticoagulant activity in platelet-rich plasma isolated from Sprague-Dawley rat assessed as prothrombin time at 46 mg/kg, ig bid for 7 days (reference value: 11.6 +/- 0.98 secs). The class given is functional.
For data set [10], the system named is Rattus norvegicus. As to the kind of experiment: Anticoagulant activity in platelet-rich plasma isolated from Sprague-Dawley rat assessed as thrombin time at 46 mg/kg, ig bid for 7 days (reference value: 47.1 +/- 3.1 secs). In kind it is functional.
In data set [11] the test system is Mus musculus. As to the kind of experiment: Toxicity in Balb/c mouse assessed as red blood cell count at 66.2 mg/kg, ig bid for 7 days (reference value: 7.55 +/- 0.59 10^12/L). In kind it is organism-based. The following applies: in vivo, po, 168 h.
Data set [12] has as its system Mus musculus. Put plainly: Toxicity in Balb/c mouse assessed as platelet count at 66.2 mg/kg, ig bid for 7 days (reference value: 802 +/- 74 10^9/L). In kind it is organism-based. The following applies: in vivo, po, 168 h.

Turning to `C[C@@H]1CC[C@@]2(OC1)O[C@H]1C[C@H]3[C@@H]4CC=C5C[C@@H](O)CC[C@]5(C)[C@H]4CC[C@]3(C)[C@H]1[C@@H]2C` [DISOGENIN], the Activity in the data set on Mus musculus [1] was 7.99 ×10⁹ /L; in the data set with Mus musculus [2] it was 137 g/L; in the data set with Mus musculus [3] it was 39.4%; in the data set filed under Rattus norvegicus [5] it was “Non-toxic”; in the data set listed under Rattus norvegicus [6], “Non-toxic”; in the data set on Rattus norvegicus [7], 49.14%. Besides, the Activity came out at 7.45 ×10¹² /L in the data set with Mus musculus [11] and 788 ×10⁹ /L in the data set on Mus musculus [12]. In the data set listed under Rattus norvegicus [4], the UI is reported as 1.33. In addition, the APTT in the data set with Rattus norvegicus [8] stood at 19.2 s. For the same compound, the PT in the data set on Rattus norvegicus [9] is 15.2 s. For the same compound, the TT with Rattus norvegicus [10] worked out at 53.2 s.
